What all share (assay type): biochemical
The target of assay [1] is T1, HDAC10 (Homo sapiens, UniProt Q969S8).
T1 sequence (Q969S8 1-669): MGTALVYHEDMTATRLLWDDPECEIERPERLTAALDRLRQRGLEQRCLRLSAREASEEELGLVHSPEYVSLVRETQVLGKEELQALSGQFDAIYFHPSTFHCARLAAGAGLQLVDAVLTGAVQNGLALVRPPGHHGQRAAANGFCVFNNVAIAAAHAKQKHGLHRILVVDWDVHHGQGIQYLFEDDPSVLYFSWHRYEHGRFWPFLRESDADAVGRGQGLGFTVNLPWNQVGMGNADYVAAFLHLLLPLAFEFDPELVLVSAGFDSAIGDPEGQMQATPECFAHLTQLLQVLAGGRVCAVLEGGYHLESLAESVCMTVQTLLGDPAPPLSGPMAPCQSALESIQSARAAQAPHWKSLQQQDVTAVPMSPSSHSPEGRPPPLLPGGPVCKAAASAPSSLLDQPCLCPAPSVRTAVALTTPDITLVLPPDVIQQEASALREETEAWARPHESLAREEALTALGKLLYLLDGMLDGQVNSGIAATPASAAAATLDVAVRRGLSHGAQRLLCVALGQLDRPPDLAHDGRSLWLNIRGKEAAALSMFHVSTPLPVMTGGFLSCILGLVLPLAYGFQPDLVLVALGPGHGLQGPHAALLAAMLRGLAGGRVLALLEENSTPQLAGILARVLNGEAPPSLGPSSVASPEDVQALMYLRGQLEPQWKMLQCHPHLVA
Description: HDAC10 continuous fluorescence deacylation assay.

Assay [2] addresses T2, HDAC7 (Homo sapiens, UniProt Q8WUI4).
T2 sequence (Q8WUI4 1-952): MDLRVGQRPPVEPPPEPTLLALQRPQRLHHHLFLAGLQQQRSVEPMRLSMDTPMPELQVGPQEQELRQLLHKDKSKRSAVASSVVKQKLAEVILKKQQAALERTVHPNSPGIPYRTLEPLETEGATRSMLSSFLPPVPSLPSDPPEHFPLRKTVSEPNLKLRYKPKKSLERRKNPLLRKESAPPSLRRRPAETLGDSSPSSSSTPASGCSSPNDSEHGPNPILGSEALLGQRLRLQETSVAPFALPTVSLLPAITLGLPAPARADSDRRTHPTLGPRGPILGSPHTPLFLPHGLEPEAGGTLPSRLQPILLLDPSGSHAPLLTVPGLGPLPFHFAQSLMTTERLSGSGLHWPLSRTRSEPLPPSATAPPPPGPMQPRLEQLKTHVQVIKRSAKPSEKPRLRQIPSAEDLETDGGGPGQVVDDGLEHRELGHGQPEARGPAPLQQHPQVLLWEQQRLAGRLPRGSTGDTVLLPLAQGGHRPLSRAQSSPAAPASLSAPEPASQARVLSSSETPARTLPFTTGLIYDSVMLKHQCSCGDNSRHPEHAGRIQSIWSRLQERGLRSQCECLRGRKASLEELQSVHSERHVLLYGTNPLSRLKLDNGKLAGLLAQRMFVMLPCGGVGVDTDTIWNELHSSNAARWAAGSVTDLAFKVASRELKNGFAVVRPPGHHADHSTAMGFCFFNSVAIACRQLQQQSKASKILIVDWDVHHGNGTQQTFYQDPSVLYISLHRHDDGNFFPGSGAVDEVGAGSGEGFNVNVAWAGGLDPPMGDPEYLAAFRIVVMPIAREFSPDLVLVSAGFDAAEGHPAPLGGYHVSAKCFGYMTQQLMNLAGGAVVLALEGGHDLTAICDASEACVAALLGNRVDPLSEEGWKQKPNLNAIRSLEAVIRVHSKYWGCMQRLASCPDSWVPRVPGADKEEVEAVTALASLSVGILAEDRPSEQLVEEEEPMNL
Description: HDAC7 continuous fluorescence deacylation assay.

Assay [3] addresses Sirt2 (demyristoylation) (Homo sapiens, UniProt Q8IXJ6). Description: Continuous Sirt2 demyristoylation assay (myristoylated peptide substrate). To be noted: peptide-based myristoylated substrate, triplicate; read-out: Sirt2-mediated demyristoylation IC50. Here is the method:
As a second method to confirm the inhibition of Sirt2-mediated demyristoylation by 33, we used a continuous Sirt2 demyristoylation assay as reported by Zessin et al.[48] In brief, this assay was performed in a black 384-well fluorescence plate in a total volume of 40 μL of Sirt assay buffer (20 mM Tris-HCl, 150 mM NaCl, 5 mg/mL MgCl2, 2 mg/mL BSA, pH 7.8). Dilution series of the inhibitor was done in DMSO. A total of 2 μL of the inhibitor dilutions were incubated with 14 μL of the peptide substrate, referred to as F4 in Zessin et al.[48] (final concentration 40 nM) and 14 μL of Sirt2 solution (final concentration 1 nM) for 5 min at room temperature. In addition to the inhibitor-containing samples, a sample without inhibitors was measured as a positive control, and a sample without enzymes was measured as a negative control. The DMSO concentration was set to 5% (v/v). The reaction was started by the addition of 10 μL of NAD^+ (final concentration 500 μM). The product formation was monitored by the change in fluorescence intensity, and the reaction rate represented the activity. Fluorescence readout was performed with a BMG Fluostar Omega plate reader at following wavelengths: Excitation wavelength: λEx = 485 ± 10 nm, emission wavelength: λEm = 530 ± 10 nm. Inhibition was calculated using the following equation: [drawing 1] […]

A value given as a limit tells only on which side of the number the result lay.

Sequence of Sirt2 (demyristoylation) (Q8IXJ6 whole entry): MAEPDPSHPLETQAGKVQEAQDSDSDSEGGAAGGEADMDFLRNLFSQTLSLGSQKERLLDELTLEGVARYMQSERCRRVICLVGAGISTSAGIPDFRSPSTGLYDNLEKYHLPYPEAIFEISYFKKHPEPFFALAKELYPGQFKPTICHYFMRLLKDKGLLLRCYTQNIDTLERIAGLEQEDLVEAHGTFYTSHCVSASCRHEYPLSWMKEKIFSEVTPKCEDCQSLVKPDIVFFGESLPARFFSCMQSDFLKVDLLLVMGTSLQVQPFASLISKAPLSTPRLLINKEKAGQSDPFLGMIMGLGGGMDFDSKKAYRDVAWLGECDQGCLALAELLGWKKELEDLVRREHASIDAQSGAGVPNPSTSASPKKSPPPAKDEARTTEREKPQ

For `CCCCN(Cc1ccc(C(=O)NO)cc1)C(=O)CCCCn1cc(COc2cccc(Cc3cnc(NC(=O)CSc4nc(C)cc(C)n4)s3)c2)nn1` [Compound 33, 4-((N-Butyl-5-(4-((3-((2-(2-((4,6-dimethylpyrimidin-2-yl)thio)acetamido)thiazol-5-yl)methyl)phenoxy)methyl)-1H-1,2,3-triazol-1-yl)pentanamido)methyl)-N-hydroxybenzamide], the half-maximal inhibitory concentration (IC50) – broadly, the point on the concentration scale where inhibition reaches its midpoint – in assay [1] was more than 6 µM; in assay [2], more than 6 µM; in assay [3] it was 0.88 ± 0.09 µM. Moreover, the inhibition (in general, the change of the read-out against control, counted positive when it falls) at 6 µM in assay [1] (@ 6 µM, read-out: HDAC10 percentual inhibition) was 27%; in assay [2] (@ 6 µM, read-out: HDAC7 percentual inhibition), 29%. In addition, the inhibition at 20 µM was 64% in assay [1] (@ 20 μM, read-out: HDAC10 percentual inhibition) and 57% in assay [2] (@ 20 μM, read-out: HDAC7 percentual inhibition).

For the origin of these results see paper PMC10641818, “Development of First-in-Class Dual Sirt2/HDAC6 Inhibitors as Molecular Tools for Dual Inhibition of Tubulin Deacetylation” (Journal of Medicinal Chemistry, 2023).
